Holding throughout (format): cell-based
Experiment [1] has as its target T1, hGIPR (Homo sapiens, UniProt P48546).
T1 sequence (P48546 22-466): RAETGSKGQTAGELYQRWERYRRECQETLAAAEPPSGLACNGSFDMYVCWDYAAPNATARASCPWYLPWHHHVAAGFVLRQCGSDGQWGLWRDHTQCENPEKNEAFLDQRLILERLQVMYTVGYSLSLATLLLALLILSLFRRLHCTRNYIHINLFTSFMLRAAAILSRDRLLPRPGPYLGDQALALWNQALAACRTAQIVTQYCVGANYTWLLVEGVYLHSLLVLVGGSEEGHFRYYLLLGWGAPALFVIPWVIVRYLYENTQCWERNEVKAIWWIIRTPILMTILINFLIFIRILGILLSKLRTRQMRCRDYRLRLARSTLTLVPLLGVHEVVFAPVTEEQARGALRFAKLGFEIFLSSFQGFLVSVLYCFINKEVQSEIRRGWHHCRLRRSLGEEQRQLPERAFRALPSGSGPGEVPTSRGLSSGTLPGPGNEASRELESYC
Description: Functional cAMP activity in the presence of 1% HSA. The conditions noted are these: read-out: cAMP Rel EC50, hGIPR.

The target of experiment [2] is T2, hGLP-1R (Homo sapiens, UniProt P43220). Description: Functional cAMP activity in the presence of 1% HSA. To be noted: read-out: cAMP Rel EC50, hGLP-1R.
For experiment [3], the target named is human GcgR (Homo sapiens, UniProt P47871). Kind of experiment: Functional cAMP activity in the presence of 1% HSA. To be noted: read-out: cAMP Rel EC50, hGcgR.
Experiment [4] addresses T1, hGIPR. Kind of experiment: Functional cAMP activation in the presence of 0.1% casein (no HSA). The conditions noted are these: in the presence of 0.1% casein (no HSA); geometric mean; read-out: Relative cAMP EC50, hGIPR.
Experiment [5] deals with T2, hGLP-1R. The experiment is described as above. To be noted: in the presence of 0.1% casein (no HSA); geometric mean; read-out: Relative cAMP EC50, hGLP-1R.
In experiment [6] the target is hGcgR (Homo sapiens, UniProt P47871). Described as above. To be noted: in the presence of 0.1% casein (no HSA); geometric mean; read-out: Relative cAMP EC50, hGcgR.

Starred links: 1 amine or outer side, 2 acyl side, 3 side chain; linkers in the order of their positions; H or OH if unused. Non-standard residues stand in square brackets, D forms with d. Groups on a side chain read outwards from the residue. No end group written: not given here. *: point of attachment. C18 diacid = O=C(O)CCCCCCCCCCCCCCCCC(=O)*; γGlu = O=C(O)[C@H](CCC(=O)[*:2])N[*:1]; αMe4Pal = C[C@](N)(Cc1ccncc1)C(=O)O; αMeY = C[C@](N)(Cc1ccc(O)cc1)C(=O)O; 4Pal = N[C@@H](Cc1ccncc1)C(=O)O; αMeL = CC(C)C[C@](C)(N)C(=O)O; AEEA = NCCOCCOCC(=O)O; Aib = CC(C)(N)C(=O)O
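Wherever Relative cAMP EC50, hGIPR is given: intracellular cAMP rise after 30 min at 37 °C read by HTRF against a standard curve, scaled between buffer alone (0%) and top control ligand concentration (100%), four-parameter fit.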
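Wherever Relative cAMP EC50, hGLP-1R is given: intracellular cAMP rise after 30 min at 37 °C read by HTRF, normalized between buffer only (0%) and maximal control ligand (100%), four-parameter variable-slope fit.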
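Wherever Relative cAMP EC50, hGcgR is given: intracellular cAMP rise after 30 min at 37 °C, read by HTRF against a cAMP standard curve, scaled from buffer only (0%) to maximal control ligand response (100%).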

Sequence of human GcgR (P47871 26-477): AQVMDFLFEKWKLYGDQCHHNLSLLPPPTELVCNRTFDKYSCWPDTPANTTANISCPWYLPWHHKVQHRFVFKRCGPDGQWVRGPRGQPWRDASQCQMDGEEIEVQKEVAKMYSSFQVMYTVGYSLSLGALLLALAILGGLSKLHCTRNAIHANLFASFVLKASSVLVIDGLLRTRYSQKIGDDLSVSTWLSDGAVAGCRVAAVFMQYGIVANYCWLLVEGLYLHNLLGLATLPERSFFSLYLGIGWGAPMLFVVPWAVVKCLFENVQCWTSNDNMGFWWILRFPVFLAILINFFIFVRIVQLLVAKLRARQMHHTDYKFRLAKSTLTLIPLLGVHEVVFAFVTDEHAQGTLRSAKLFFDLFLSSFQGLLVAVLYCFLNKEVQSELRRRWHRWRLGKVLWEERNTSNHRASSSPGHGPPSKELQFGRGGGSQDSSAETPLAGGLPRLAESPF
Sequence of hGcgR (P47871 26-477): as above
T2 sequence (P43220 24-463): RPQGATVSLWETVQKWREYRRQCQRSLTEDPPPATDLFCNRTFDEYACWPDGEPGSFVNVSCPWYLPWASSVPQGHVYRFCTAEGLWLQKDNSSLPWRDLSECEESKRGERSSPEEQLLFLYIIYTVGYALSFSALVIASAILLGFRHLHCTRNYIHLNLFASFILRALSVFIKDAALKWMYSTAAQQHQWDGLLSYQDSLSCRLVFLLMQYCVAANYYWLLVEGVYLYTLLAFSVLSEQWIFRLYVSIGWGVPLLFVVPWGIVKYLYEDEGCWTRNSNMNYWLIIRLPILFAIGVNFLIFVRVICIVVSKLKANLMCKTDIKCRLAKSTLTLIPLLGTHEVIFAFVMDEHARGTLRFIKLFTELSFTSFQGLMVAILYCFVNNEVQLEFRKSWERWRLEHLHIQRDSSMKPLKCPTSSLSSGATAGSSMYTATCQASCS

As usually defined, the EC50 is the concentration giving half of the maximal effect. As for “H-Y[Aib]QGTFTSD[4Pal]SQ[αMeL]LDKK([AEEA-γGlu-C18 diacid])AQ[Aib]AFIEYLLE[dA]GPSS[Aib]APPPSGT-NH2 [Example 824]”, the EC50 is 28.9 nM in experiment [1]; 343 nM in experiment [2]; 1110 nM in experiment [3]; 0.123 nM in experiment [4]; 2.43 nM in experiment [5]; 7.92 nM in experiment [6].

For the substance “H-Y[Aib]QGTFTSD[4Pal]SQ[αMeL]LDKK([AEEA-γGlu-C18 diacid])AQ[Aib]AFIE[αMeY]LIEGGPSSGAPPPEGS-NH2 [Example 853]”, the EC50 was found to be 32.4 nM in experiment [1]; 102 nM in experiment [2]; 4500 nM in experiment [3]; 0.224 nM in experiment [4]; 0.507 nM in experiment [5]; 26.5 nM in experiment [6].

“H-Y[Aib]QGTFTSD[4Pal]SQ[αMeL]LDKK([AEEA-γGlu-C18 diacid])AQ[Aib]AFIE[αMeY]LLEGGPSSGAPPPSGS-NH2 [Example 910]”: the EC50 in experiment [1] amounted to 25.7 nM; in experiment [2] it was 239 nM; in experiment [3], 2640 nM; in experiment [4], 0.111 nM; in experiment [5], 1.49 nM; in experiment [6], 9.76 nM.

With “H-Y[Aib]QGTFTSD[4Pal]SQ[αMeL]LDKK([AEEA-γGlu-C18 diacid])AQ[αMe4Pal]AFIEWLIEGGPSSGAPPPSGS-NH2 [Example 830]”, the EC50 in experiment [1] is 44.8 nM; in experiment [2] it was 180 nM; in experiment [3] it was 809 nM; in experiment [4], 0.132 nM; in experiment [5], 0.791 nM; in experiment [6], 3.21 nM.

As for “H-Y[Aib]QGTFTSD[4Pal]SQ[αMeL]LDKK([AEEA-γGlu-C18 diacid])AQ[αMe4Pal]AFIEWLIEGGPSSGAPPPSGT-NH2 [Example 831]”, the EC50 was 38.2 nM in experiment [1]; 237 nM in experiment [2]; 1450 nM in experiment [3]; 0.604 nM in experiment [4]; 0.672 nM in experiment [5]; 4.63 nM in experiment [6].

As to “H-Y[Aib]QGTFTSD[4Pal]SQ[αMeL]LDKK([AEEA-γGlu-C18 diacid])AQ[αMe4Pal]AFIEYLIAGGPSSGAPPPSGSEE-NH2 [Example 1029]”, the EC50 stood at 22.3 nM in experiment [1]; 170 nM in experiment [2]; 511 nM in experiment [3]; 0.163 nM in experiment [4]; 1.79 nM in experiment [5]; 5.35 nM in experiment [6].

Turning to “H-Y[Aib]QGTFTSD[4Pal]SQ[αMeL]LDKK([AEEA-γGlu-C18 diacid])AQ[αMe4Pal]AFIEYLIEGGPSSGAPPPSGS-NH2 [Example 826]”, the EC50 in experiment [1] is 81.6 nM; in experiment [2], 202 nM; in experiment [3], 441 nM; in experiment [4] it was 0.581 nM; in experiment [5], 2.75 nM; in experiment [6], 5.59 nM.

On to “H-Y[Aib]QGTFTSD[4Pal]SQ[αMeL]LDKK([AEEA-γGlu-C18 diacid])AQ[αMe4Pal]AFIEYLIE[Aib]GPSSGAPPPEGS-NH2 [Example 851]”, for which the EC50 in experiment [1] turned out to be 24.4 nM; in experiment [2] it was 428 nM; in experiment [3] it was 558 nM; in experiment [4] it was 0.215 nM; in experiment [5] it was 3.06 nM; in experiment [6], 3.38 nM.

In the case of “H-Y[Aib]QGTFTSD[4Pal]SQ[αMeL]LDKK([AEEA-γGlu-C18 diacid])AQ[αMe4Pal]AFIEYLIE[Aib]GPSSGAPPPSGE-NH2 [Example 881]”, the EC50 in experiment [1] is 30.1 nM; in experiment [2], 321 nM; in experiment [3], 507 nM; in experiment [4], 0.211 nM; in experiment [5], 2.87 nM; in experiment [6], 4.09 nM.

As for “H-Y[Aib]QGTFTSD[4Pal]SQ[αMeL]LDKK([AEEA-γGlu-C18 diacid])AQ[αMe4Pal]AFIEYLIE[Aib]GPSSGAPPPSGSE-NH2 [Example 886]”, the EC50 amounted to 26.5 nM in experiment [1]; 271 nM in experiment [2]; 540 nM in experiment [3]; 0.149 nM in experiment [4]; 2.7 nM in experiment [5]; 4.13 nM in experiment [6].

Regarding “H-Y[Aib]QGTFTSD[4Pal]SQ[αMeL]LDKK([AEEA-γGlu-C18 diacid])AQ[αMe4Pal]AFIEYLIE[Aib]GPSSGAPPPSGSEE-NH2 [Example 897]”, the EC50 in experiment [1] turned out to be 25.9 nM; in experiment [2], 557 nM; in experiment [3] it was 658 nM; in experiment [4] it was 0.157 nM; in experiment [5], 3.29 nM; in experiment [6], 3.62 nM.

In the case of “H-Y[Aib]QGTFTSD[4Pal]SQ[αMeL]LDKK([AEEA-γGlu-C18 diacid])AQ[αMe4Pal]AFIEYLIE[Aib]GPSSGAPPPSGSEEE-NH2 [Example 898]”, the EC50 in experiment [1] came to 25.5 nM; in experiment [2], 584 nM; in experiment [3] it was 770 nM; in experiment [4], 0.287 nM; in experiment [5], 4.62 nM; in experiment [6] it was 3.39 nM.

In the case of “H-Y[Aib]QGTFTSD[4Pal]SQ[αMeL]LDKK([AEEA-γGlu-C18 diacid])AQ[αMe4Pal]AFIEYLIE[Aib]GPSSGAPPPSGSGE [Example 889]”, the EC50 amounted to 21.6 nM in experiment [1]; 371 nM in experiment [2]; 688 nM in experiment [3]; 0.106 nM in experiment [4]; 5.06 nM in experiment [5]; 4.09 nM in experiment [6].

On to “H-Y[Aib]QGTFTSD[4Pal]SQ[αMeL]LDKK([AEEA-γGlu-C18 diacid])AQ[αMe4Pal]AFIEYLIE[Aib]GPSSGAPPPSGSGE-NH2 [Example 888]”, for which the EC50 is 30.8 nM in experiment [1]; 238 nM in experiment [2]; 567 nM in experiment [3]; 0.168 nM in experiment [4]; 5.02 nM in experiment [5]; 30.1 nM in experiment [6].

For “H-Y[Aib]QGTFTSD[4Pal]SQ[αMeL]LDKK([AEEA-γGlu-C18 diacid])AQ[αMe4Pal]AFIEYLIE[Aib]GPSSGAPPPSGT-NH2 [Example 834]”, the EC50 was determined as 15.7 nM in experiment [1]; 208 nM in experiment [2]; 533 nM in experiment [3]; 0.094 nM in experiment [4]; 2.64 nM in experiment [5]; 3.36 nM in experiment [6].

As to “H-Y[Aib]QGTFTSD[4Pal]SQ[αMeL]LDKK([AEEA-γGlu-C18 diacid])AQ[αMe4Pal]AFIEYLIE[Aib]GPSSGAPPPSG[4Pal]-NH2 [Example 835]”, the EC50 in experiment [1] was 16.8 nM; in experiment [2], 274 nM; in experiment [3] it was 558 nM; in experiment [4] it was 0.382 nM; in experiment [5], 2.84 nM; in experiment [6], 3.83 nM.

Consider “H-Y[Aib]QGTFTSD[4Pal]SQ[αMeL]LDKK([AEEA-γGlu-C18 diacid])AQ[αMe4Pal]AFIEYLIE[Aib]GPSSGAPPPSSS-NH2 [Example 848]”, for which the EC50 in experiment [1] is 20.2 nM; in experiment [2], 313 nM; in experiment [3], 615 nM; in experiment [4] it was 0.148 nM; in experiment [5] it was 2.29 nM; in experiment [6], 3.22 nM.

Consider “H-Y[Aib]QGTFTSD[4Pal]SQ[αMeL]LDKK([AEEA-γGlu-C18 diacid])AQ[αMe4Pal]AFIEYLLAGGPSSGAPPPSGSEE-NH2 [Example 1037]”, for which the EC50 in experiment [1] amounted to 13.7 nM; in experiment [2], 625 nM; in experiment [3], 291 nM; in experiment [4], 0.221 nM; in experiment [5] it was 5.95 nM; in experiment [6], 3.31 nM.

For the substance “H-Y[Aib]QGTFTSD[4Pal]SQ[αMeL]LDKK([AEEA-γGlu-C18 diacid])AQ[αMe4Pal]AFIE[αMe4Pal]LIEGGPSSGAPPPSGS-NH2 [Example 948]”, the EC50 in experiment [1] was determined as 22.9 nM; in experiment [2], 304 nM; in experiment [3] it was 537 nM; in experiment [4], 0.17 nM; in experiment [5], 2.67 nM; in experiment [6] it was 2.89 nM.

Turning to “H-Y[Aib]QGTFTSD[4Pal]SQ[αMeL]LDKK([AEEA-γGlu-C18 diacid])AQ[αMe4Pal]AFIE[αMe4Pal]LIEGGPSSGAPPPSGSEE-NH2 [Example 954]”, the EC50 in experiment [1] was found to be 35.3 nM; in experiment [2], 357 nM; in experiment [3], 450 nM; in experiment [4] it was 0.268 nM; in experiment [5], 4.79 nM; in experiment [6], 3.66 nM.

Turning to “H-Y[Aib]QGTFTSD[4Pal]SQ[αMeL]LDKK([AEEA-γGlu-C18 diacid])AQ[αMe4Pal]AFIE[αMe4Pal]LIE[Aib]GPSSGAPPPSGTE-NH2 [Example 1116]”, the EC50 in experiment [1] was 10.8 nM; in experiment [2], 198 nM; in experiment [3] it was 364 nM; in experiment [4], 0.134 nM; in experiment [5], 4.63 nM; in experiment [6], 8.2 nM.

For the substance “H-Y[Aib]QGTFTSD[4Pal]SQ[αMeL]LDKK([AEEA-γGlu-C18 diacid])AQ[αMe4Pal]AFIE[αMe4Pal]LIE[Aib]GPSSGAPPPSGTGE-NH2 [Example 1117]”, the EC50 is 8.31 nM in experiment [1]; 237 nM in experiment [2]; 355 nM in experiment [3]; 0.124 nM in experiment [4]; 3.51 nM in experiment [5]; 4.93 nM in experiment [6].
